Experiment: Lubricity durability after incubation in PBS at 70° C.
Format: physicochemical
Details: PBS at 70° C. for 20 hours
Method: Lacking a direct assay for PEI, an indirect measure of cross-linking effectiveness was selected. This method involved measuring the stability of the cross-linked coating when incubated in PBS at 70° C. for 20 hours. […] It was assumed that this durability was only possible if cross-linking had immobilized the PEI into a cross-linked matrix. PVP which cannot participate in this cross-linking was free to diffuse through the matrix to maintain lubricity. This assumption was further validated when the covalently cross-linked coating tested as non toxic.
Primary amines react readily with epoxides to form a secondary amine alcohol. Therefore, a multifunctional epoxide has the capability of cross-linking PEI into an immobile matrix EGDE (Sigma Chemical, ethylene glycol diglycidyl ether, E27203 50% technical grade) is a diepoxide with this capability. EGDE is readily soluble in water and isopropanol and can be applied to a coated sheath by a simple dip into an EGDE solution. Effectiveness of EGDE as a cross-linker of PEI was evaluated at 0.1% and 0.5% in aqueous and isopropanol solutions. Evidence of cross-linking was determined by the durability of lubricity after incubation in phosphate buffered saline (PBS) for 20+ hours at 70° C.
This test consisted of incubation of 6 inch segments of the coated sheaths in phosphate buffered saline (PBS) in 18×150 mm test tubes at 70° C. for 20-24 hours. […]

Row | Compound | Lubricity after incubation in PBS (lubricity durability)
1 | O=CCCCC=O [Glutaraldehyde] | showed lubricity durability
2 | polyethyleneglycol diglycidyl ether | showed lubricity durability

Source: patent US20080300554A1, “LUBRICANT FOR MEDICAL DEVICES” (APPLIED MEDICAL RESOURCES CORPORATION, priority 2007, published 2008)
